This note sets out measurements from ChEMBL document CHEMBL4765330, “Synthesis of some steroidal mitocans of nanomolar cytotoxicity acting by apoptosis” (Eur J Med Chem, 2020).

A value given as a limit tells only on which side of the number the result lay.

In one data set the test system is FaDu. Briefly: Cytotoxicity against human FaDu cells assessed as reduction in cell viability incubated for 72 hrs by SRB assay. In kind it is functional, cell-based.
The test system of the next data set is HT-29. Briefly: Cytotoxicity against human HT29 cells assessed as reduction in cell viability incubated for 72 hrs by SRB assay. In kind it is functional, cell-based. (In SRB staining, fixed cells bind dye roughly in proportion to their protein.)
The next data set deals with MCF7. Briefly: Cytotoxicity against human MCF7 cells assessed as reduction in cell viability incubated for 72 hrs by SRB assay. The format is functional, cell-based.
A short description of data set [1]: in vitro. The following applies: mouse, NIH3T3 cells versus FaDu cells.
Description: Selectivity index, ratio of IC50 for mouse NIH3T3 cells to IC50 for human FaDu cells incubated for 72 hrs by SRB assay
In data set [2] the test system is A2780. Put plainly: Cytotoxicity against human A2780 cells assessed as reduction in cell viability incubated for 72 hrs by SRB assay. In kind it is functional, cell-based.
Data set [3] can be described thus: in vitro. The settings on record: mouse, NIH3T3 cells versus MCF7 cells.
Description: Selectivity index, ratio of IC50 for mouse NIH3T3 cells to IC50 for human MCF7 cells incubated for 72 hrs by SRB assay
Data set [4] in a line: in vitro. The following applies: mouse, NIH3T3 cells versus A2780 cells.
Description: Selectivity index, ratio of IC50 for mouse NIH3T3 cells to IC50 for human A2780 cells incubated for 72 hrs by SRB assay
The nature of data set [5]: Selectivity index, ratio of IC50 for mouse NIH3T3 cells to IC50 for human A375 cells incubated for 72 hrs by SRB assay. In kind it is toxicity. The settings on record: NIH3T3 cells versus A375 cells, read-out: Ratio IC50.
Data set [6] in a line: in vitro. The following applies: mouse, NIH3T3 cells versus HT29 cells.
Description: Selectivity index, ratio of IC50 for mouse NIH3T3 cells to IC50 for human HT29 cells incubated for 72 hrs by SRB assay
The subject of the next data set is NIH3T3. Put plainly: Cytotoxicity against mouse NIH3T3 cells assessed as reduction in cell viability incubated for 72 hrs by SRB assay. The format is cell-based.
The subject of data set [7] is A-375. Put plainly: Cytotoxicity against human A375 cells assessed as reduction in cell viability incubated for 72 hrs by SRB assay. In kind it is functional, cell-based.
The test system of data set [8] is A-375. Put plainly: Induction of apoptosis in human A375 cells assessed as necrotic cells after 48 hrs by annexin V-FITC and propidium iodide staining based flow cytometric analysis. In kind it is functional. In general terms: A flow cytometer gives signals particle by particle.
Data set [9] deals with A2780. Put plainly: Cell cycle arrest in human A2780 cells assessed as accumulation at G1 phase after 48 hrs by PI staining based flow cytometric analysis (reference value: 54.53 %). The format is functional.
Data set [10] is described as follows: Drug uptake in nucleus of human A2780 cells at 0.054 mM incubated for 1 hr with compound and Hoechst 33342 and followed by further incubation with Rhodamine123 for 20 mins by fluorescence microscopic method. In kind it is ADME, subcellular. The following applies: a2780, 1.333 h, 54 µM, time 80 min.
For data set [11], the system named is A2780. Put plainly: Cell cycle arrest in human A2780 cells assessed as apoptotic cells after 48 hrs by PI staining based flow cytometric analysis (reference value: 0.48 %). In kind it is functional.
Data set [12] relates to A2780. Put plainly: Cell cycle arrest in human A2780 cells assessed as accumulation at S phase after 48 hrs by PI staining based flow cytometric analysis (reference value: 34.22 %). The format is functional.
Data set [13] concerns A-375. Briefly: Induction of apoptosis in human A375 cells assessed as late apoptotic cells after 48 hrs by annexin V-FITC and propidium iodide staining based flow cytometric analysis. In kind it is functional.
The nature of data set [14]: Drug uptake in mitochondria of human A2780 cells at 0.054 mM incubated for 1 hr with compound and Hoechst 33342 and followed by further incubation with Rhodamine123 for 20 mins by fluorescence microscopic method. In kind it is ADME. The following applies: a2780, 1.333 h, 54 µM, time 80 min.
The test system of data set [15] is A-375. Briefly: Induction of apoptosis in human A375 cells assessed as apoptotic cells after 48 hrs by annexin V-FITC and propidium iodide staining based flow cytometric analysis. The format is functional.
Data set [16] has as its system A2780. Put plainly: Cell cycle arrest in human A2780 cells assessed as accumulation at G2/M phase after 48 hrs by PI staining based flow cytometric analysis (reference value: 11.25 %). In kind it is functional.
Setting [17] is: Homo sapiens, FaDu, 72 h, read-out: IC50.
Setting [18] is: Homo sapiens, HT-29, 72 h, read-out: IC50.
The mark [19] stands for this setting: Homo sapiens, MCF7, 72 h, read-out: IC50.
The mark [20] stands for this setting: Homo sapiens, A2780, 72 h, read-out: IC50.
Where [21] appears, read: Mus musculus, NIH3T3, 72 h, read-out: IC50.
[22] abbreviates: Homo sapiens, A-375, 72 h, read-out: IC50.

Usually IC50 stands for the concentration at which inhibition is half-maximal. With `CCN(CC)c1ccc2c(-c3ccccc3C(=O)O[C@H]3CC[C@@]4(C)C(=CC[C@@H]5[C@@H]4CC[C@]4(C)C(c6cccnc6)=CC[C@@H]54)C3)c3ccc(=[N+](CC)CC)cc-3oc2c1`, the half-inhibitory concentration (IC50) in the data set with FaDu (setting [17]) came out at 200 nM; in the data set on HT-29 (setting [18]) it was 200 nM; in the data set with MCF7 (setting [19]), 200 nM; in the data set with A2780 [2] (setting [20]), 100 nM; in the data set with NIH3T3 (setting [21]), 300 nM; with A-375 [7] (setting [22]), 200 nM. The selectivity ratio at 72 h in the data set “in vitro [1]” came out at 1.8; in the data set “in vitro [3]” it was 1.6; in the data set “in vitro [4]” it was 1.8; in data set [5], 1.7; in “in vitro [6]”, 1.1.
Regarding `CN[C@@H]1C[C@H]2O[C@@](C)([C@@H]1OC)n1c3ccccc3c3c4c(c5c6ccccc6n2c5c31)C(=O)NC4` [STAUROSPORINE], the IC50 in the data set on NIH3T3 (setting [21]) was found to be 8 nM.
On to `CCN(CC)c1ccc2c(-c3ccccc3C(=O)O[C@H]3CC[C@@]4(C)C(=CC[C@H]5[C@@H]6CC[C@H]([C@H](C)CCCC(C)C)[C@@]6(C)CC[C@@H]54)C3)c3ccc(=[N+](CC)CC)cc-3oc2c1.[Cl-]`, for which the IC50 result in the data set with FaDu (fadu), with HT-29 (ht-29), in the data set on MCF7 (mcf7), with A2780 [2] (a2780), in the data set with NIH3T3 (nih3t3) and in the data set on A-375 [7] (a-375) was “Nd(Insoluble)” in each case.
`CCN(CC)c1ccc2c(-c3ccccc3C(=O)O[C@H]3CC[C@H]4[C@@H]5CCC6=CC(=O)CC[C@]6(C)[C@H]5CC[C@]34C)c3ccc(=[N+](CC)CC)cc-3oc2c1.[Cl-]`: the IC50 stood at 200 nM in the data set with FaDu (setting [17]); 120 nM with HT-29 (setting [18]); 60 nM with MCF7 (setting [19]); 80 nM in the data set with A2780 [2] (setting [20]); 200 nM in the data set with NIH3T3 (setting [21]); 160 nM in the data set with A-375 [7] (setting [22]). Also, the Activity in the data set on A-375 [8] amounted to 20%; in the data set on A2780 [9], 51.77%; in the data set with A2780 [11], 3.29%; in the data set on A2780 [12], 44.74%; with A-375 [13], 12%; with A-375 [15], 5%. For the same molecule, the Activity in the data set on A2780 [16] is 3.48%. The selectivity ratio at 72 h turned out to be 1 in “in vitro [1]”; 3.1 in “in vitro [3]”; 2.2 in the data set “in vitro [4]”; 1.1 in data set [5]; 1.5 in the data set “in vitro [6]”. The results for the Drug uptake entry in [10] and in data set [14] were “Not Active” and “Active”, respectively.
For the molecule `C=C(c1ccc(C(=O)N2CCN(C(=O)c3ccccc3-c3c4ccc(=[N+](CC)CC)cc-4oc4cc(N(CC)CC)ccc34)CC2)cc1)c1cc2c(cc1C)C(C)(C)CCC2(C)C.[Cl-]`, the IC50 entry in the data set on FaDu (fadu), with HT-29 (ht-29), in the data set with MCF7 (mcf7), in the data set with A2780 [2] (a2780), in the data set on NIH3T3 (nih3t3) and in the data set on A-375 [7] (a-375) was “Nd(Insoluble)” each time.
On to `C[C@]12CC[C@H](O)C=C1CC[C@@H]1[C@@H]2CC[C@]2(C)C(c3cccnc3)=CC[C@@H]12`, for which the IC50 result in the data set on FaDu (fadu), in the data set on HT-29 (ht-29), with MCF7 (mcf7), in the data set on A2780 [2] (a2780), in the data set on NIH3T3 (nih3t3) and in the data set with A-375 [7] (a-375) was “Nd(Insoluble)” each time.
On to `CCN(CC)c1ccc2c(-c3ccccc3C(=O)OCC(=O)[C@@]3(O)CC[C@H]4[C@@H]5CCC6=CC(=O)C=C[C@@]6(C)[C@H]5C(=O)C[C@@]43C)c3ccc(=[N+](CC)CC)cc-3oc2c1.[Cl-]`, for which the IC50 turned out to be 400 nM with FaDu (setting [17]); 600 nM in the data set with HT-29 (setting [18]); 200 nM in the data set with MCF7 (setting [19]); 300 nM in the data set with A2780 [2] (setting [20]); 1800 nM in the data set with NIH3T3 (setting [21]); 100 nM with A-375 [7] (setting [22]). The Activity in the data set on A-375 [8] was 2%; with A2780 [9], 12.78%; with A2780 [11], 37.36%; in the data set with A2780 [12], 87.22%; in the data set on A-375 [13] it was 14%; in the data set on A-375 [15], 48%. Besides, the Activity in the data set on A2780 [16] stood at 0%. Moreover, the selectivity ratio at 72 h in the data set “in vitro [1]” was 4.1; in the data set “in vitro [3]”, 7.3; in the data set “in vitro [4]”, 5.2; in data set [5], 1.8; in the data set “in vitro [6]”, 2.9.
Take `C[C@]12C=CC(=O)C=C1CC[C@@H]1[C@@H]2C(=O)C[C@@]2(C)[C@H]1CC[C@]2(O)C(=O)CO` [PREDNISONE]: the IC50 in the data set with FaDu (setting [17]), in the data set with HT-29 (setting [18]), with MCF7 (setting [19]), with NIH3T3 (setting [21]) and in the data set with A-375 [7] (setting [22]) was > 30000 nM throughout.
Take `CCN(CC)c1ccc2c(-c3ccccc3C(=O)N3CCNCC3)c3ccc(=[N+](CC)CC)cc-3oc2c1`: the IC50 in the data set on FaDu (setting [17]) was > 30000 nM; in the data set on HT-29 (setting [18]), > 30000 nM; in the data set with MCF7 (setting [19]), 17800 nM; in the data set on A2780 [2] (setting [20]), 26400 nM; in the data set on NIH3T3 (setting [21]), > 30000 nM; in the data set on A-375 [7] (setting [22]), > 30000 nM. In addition, the selectivity ratio at 72 h in “in vitro [4]” amounted to 1.1.
For `C=C(c1ccc(C(=O)O)cc1)c1cc2c(cc1C)C(C)(C)CCC2(C)C` [BEXAROTENE], the IC50 was 29800 nM with FaDu (setting [17]); > 30000 nM in the data set on HT-29 (setting [18]); 10600 nM in the data set on MCF7 (setting [19]); 26500 nM in the data set on A2780 [2] (setting [20]); 18700 nM in the data set with NIH3T3 (setting [21]); 28400 nM in the data set with A-375 [7] (setting [22]). In addition, the selectivity ratio at 72 h amounted to 0.6 in the data set “in vitro [1]”, 1.8 in “in vitro [3]”, 0.6 in “in vitro [4]” and 0.7 in data set [5].
For the molecule `COc1cccc2c1C(=O)c1c(O)c3c(c(O)c1C2=O)C[C@@](O)(C(=O)CO)C[C@@H]3O[C@H]1C[C@H](N)[C@H](O)[C@H](C)O1` [DOXORUBICIN], the IC50 in the data set on HT-29 (setting [18]) was found to be 900 nM; in the data set with A2780 [2] (setting [20]), 10 nM; in the data set on NIH3T3 (setting [21]), 400 nM.
